Results published in patent publication US20250205344A1, “2,4-DIOXOTETRAHYDROPYRIMIDINYL DERATIVES AS DEGRONS IN PROTACS” (GLAXOSMITHKLINE INTELLECTUAL PROPERTY DEVELOPMENT LIMITED, priority 2022, published 2025).
Where a name gives a salt, the structure may show the parent alone.

Target: T1, Androgen Receptor (Homo sapiens, UniProt P10275, T878A)
T1 construct: the AR gene was modified, using CRISPR/Cas9 editing, so the expressed AR protein included an 11 amino acid HiBiT tag; endogenous in cells; host or cells: clonal LnCaP-derived line, AR gene edited by CRISPR/Cas9
Test: Androgen Receptor Degradation Assay (Nano-Glo HiBiT)
Assay type: cell-based
Conditions: LNCaP, 18 h, HiBiT-tagged AR in human LnCaP cells, read-out: mean asymptote max
Method in brief: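 LnCaP cells with CRISPR-knocked-in N-terminal HiBiT-tagged AR (10,000/well) treated 18 h at 37 °C with PROTACs over 11 threefold concentrations; lytic HiBiT luminescence normalised to DMSO (0%) and cell-free (100%) controls. Relative DC50 = 4-parameter fit inflection; absolute DC50 = 50% degradation interpolation; Dmax = maximum observed degradation.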

T1 sequence (P10275 whole entry T878A): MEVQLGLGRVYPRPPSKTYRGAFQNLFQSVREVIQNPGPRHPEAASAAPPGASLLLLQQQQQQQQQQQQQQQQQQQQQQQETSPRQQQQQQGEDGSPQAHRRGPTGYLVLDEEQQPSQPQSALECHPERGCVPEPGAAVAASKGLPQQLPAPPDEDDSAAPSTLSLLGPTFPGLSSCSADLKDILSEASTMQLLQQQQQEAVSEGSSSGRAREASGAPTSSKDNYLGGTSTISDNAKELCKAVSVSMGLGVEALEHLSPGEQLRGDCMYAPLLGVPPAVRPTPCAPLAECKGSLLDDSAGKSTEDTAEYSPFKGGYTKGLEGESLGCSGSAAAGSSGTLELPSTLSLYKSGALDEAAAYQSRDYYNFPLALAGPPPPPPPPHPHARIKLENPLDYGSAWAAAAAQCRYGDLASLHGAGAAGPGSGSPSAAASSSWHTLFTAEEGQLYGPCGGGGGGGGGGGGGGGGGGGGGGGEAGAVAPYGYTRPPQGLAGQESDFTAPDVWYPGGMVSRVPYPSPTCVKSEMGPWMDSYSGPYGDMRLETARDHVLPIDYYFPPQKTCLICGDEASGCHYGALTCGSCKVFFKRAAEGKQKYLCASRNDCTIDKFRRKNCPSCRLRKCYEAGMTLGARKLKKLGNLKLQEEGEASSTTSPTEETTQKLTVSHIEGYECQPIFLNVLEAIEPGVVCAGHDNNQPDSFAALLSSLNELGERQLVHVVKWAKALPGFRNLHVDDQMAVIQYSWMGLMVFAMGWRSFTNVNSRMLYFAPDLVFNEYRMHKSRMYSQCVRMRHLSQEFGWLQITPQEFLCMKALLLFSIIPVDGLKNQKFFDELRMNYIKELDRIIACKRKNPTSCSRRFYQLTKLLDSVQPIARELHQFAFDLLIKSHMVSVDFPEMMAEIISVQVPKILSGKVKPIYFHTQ
T1 sequence (Q96SW2 whole entry partner): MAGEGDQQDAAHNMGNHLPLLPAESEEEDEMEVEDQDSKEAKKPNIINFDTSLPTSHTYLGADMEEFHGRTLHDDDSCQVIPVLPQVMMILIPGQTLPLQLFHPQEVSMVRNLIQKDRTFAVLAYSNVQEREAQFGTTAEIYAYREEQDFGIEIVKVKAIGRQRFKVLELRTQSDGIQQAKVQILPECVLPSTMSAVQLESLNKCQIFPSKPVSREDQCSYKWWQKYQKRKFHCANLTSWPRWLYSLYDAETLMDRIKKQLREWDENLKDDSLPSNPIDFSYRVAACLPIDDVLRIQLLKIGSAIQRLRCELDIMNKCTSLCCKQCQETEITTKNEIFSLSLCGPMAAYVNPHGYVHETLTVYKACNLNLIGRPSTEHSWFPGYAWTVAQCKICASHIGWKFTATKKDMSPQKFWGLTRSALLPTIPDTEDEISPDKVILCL
T1 sequence (Q16531 whole entry partner): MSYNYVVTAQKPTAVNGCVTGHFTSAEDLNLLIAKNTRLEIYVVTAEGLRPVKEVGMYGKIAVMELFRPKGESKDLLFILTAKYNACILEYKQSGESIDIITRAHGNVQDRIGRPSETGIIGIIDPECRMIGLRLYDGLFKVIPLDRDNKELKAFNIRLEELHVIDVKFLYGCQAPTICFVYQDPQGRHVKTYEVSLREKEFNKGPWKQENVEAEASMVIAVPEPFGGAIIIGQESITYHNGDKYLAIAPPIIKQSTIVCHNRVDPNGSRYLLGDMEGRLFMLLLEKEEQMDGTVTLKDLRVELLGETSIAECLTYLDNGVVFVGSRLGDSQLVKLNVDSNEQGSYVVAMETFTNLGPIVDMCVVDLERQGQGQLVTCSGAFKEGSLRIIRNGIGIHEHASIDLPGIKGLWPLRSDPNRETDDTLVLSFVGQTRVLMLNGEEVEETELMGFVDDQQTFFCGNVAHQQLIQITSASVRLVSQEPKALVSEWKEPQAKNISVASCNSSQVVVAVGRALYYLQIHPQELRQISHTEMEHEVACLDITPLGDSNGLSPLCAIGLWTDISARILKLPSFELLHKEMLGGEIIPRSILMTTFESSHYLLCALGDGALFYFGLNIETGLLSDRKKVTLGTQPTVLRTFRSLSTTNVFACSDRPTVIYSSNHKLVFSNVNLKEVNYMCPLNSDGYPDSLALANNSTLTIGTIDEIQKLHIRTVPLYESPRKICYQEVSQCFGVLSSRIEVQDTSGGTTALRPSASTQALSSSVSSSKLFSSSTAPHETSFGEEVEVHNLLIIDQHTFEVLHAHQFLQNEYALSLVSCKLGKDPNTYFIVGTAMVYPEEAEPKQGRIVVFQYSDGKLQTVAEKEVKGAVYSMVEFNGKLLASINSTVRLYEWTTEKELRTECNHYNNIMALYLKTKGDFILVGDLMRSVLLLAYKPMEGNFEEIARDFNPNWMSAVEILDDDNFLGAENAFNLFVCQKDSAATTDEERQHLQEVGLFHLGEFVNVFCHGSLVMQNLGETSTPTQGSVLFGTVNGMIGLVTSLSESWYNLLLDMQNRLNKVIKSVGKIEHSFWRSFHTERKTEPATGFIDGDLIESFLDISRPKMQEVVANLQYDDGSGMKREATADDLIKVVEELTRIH

| Compound | Dmax |
| --- | --- |
| N#Cc1ccc(O[C@H]2CC[C@H](NC(=O)c3ccc(N4CCC(CN5CCC(n6ccc7c(N8CCC(=O)NC8=O)nccc76)CC5)CC4)nn3)CC2)cc1C(F)(F)F [EAR204, N-((1r,4r)-4-(4-Cyano-3-(trifluoromethyl)phenoxy)cyclohexyl)-6-(4-((4-(4-(2,4-dioxotetrahydropyrimidin-1(2H)-yl)-1H-pyrrolo[3,2-c]pyridin-1-yl)piperidin-1-yl)methyl)piperidin-1-yl)pyridazine-3-carboxamide] | ≥ 50% |
| C[C@@H]1CN(c2ccc(C#N)c(Cl)c2)[C@@H](C)CN1C(=O)Nc1ccc(N2CCC(CN3CCC(n4ccc5c(N6CCC(=O)NC6=O)cccc54)CC3)CC2)nc1 [EAR108, (2R,5S)-4-(3-Chloro-4-cyanophenyl)-N-(6-(4-((4-(4-(2,4-dioxotetrahydropyrimidin-1(2H)-yl)-1H-indol-1-yl)piperidin-1-yl)methyl)piperidin-1-yl)pyridin-3-yl)-2,5-dimethylpiperazine-1-carboxamide] | ≥ 50% |
| N#Cc1ccc(O[C@H]2CC[C@H](NC(=O)c3ccc(OCCCN4CCC(n5ccc6c(N7CCC(=O)NC7=O)cccc65)CC4)cn3)CC2)cc1Cl [EAR62, N-((1r,4r)-4-(3-Chloro-4-cyanophenoxy)cyclohexyl)-5-(3-(4-(4-(2,4-dioxotetrahydropyrimidin-1(2H)-yl)-1H-indol-1-yl)piperidin-1-yl)propoxy)picolinamide] | ≥ 50% |
| N#Cc1ccc(O[C@H]2CC[C@H](NC(=O)c3cnc(N4CCC(CN5CCC(n6ccc7c(N8CCC(=O)NC8=O)cncc76)CC5)CC4)nc3)CC2)cc1C(F)(F)F [AR17, N-((1r,4r)-4-(4-Cyano-3-(trifluoromethyl)phenoxy)cyclohexyl)-2-(4-((4-(4-(2,4-dioxotetrahydropyrimidin-1(2H)-yl)-1H-pyrrolo[2,3-c]pyridin-1-yl)piperidin-1-yl)methyl)piperidin-1-yl)pyrimidine-5-carboxamide] | ≥ 50% |
| N#Cc1ccc(O[C@H]2CC[C@H](NC(=O)c3ccc(N4CCO[C@H](CN5CCC(n6ccc7c(N8CCC(=O)NC8=O)cccc76)CC5)C4)nn3)CC2)cc1Cl [EAR123, N-((1r,4R)-4-(3-Chloro-4-cyanophenoxy)cyclohexyl)-6-((R)-2-((4-(4-(2,4-dioxotetrahydropyrimidin-1(2H)-yl)-1H-indol-1-yl)piperidin-1-yl)methyl)morpholino)pyridazine-3-carboxamide] | ≥ 50% |
| N#Cc1ccc(O[C@H]2CC[C@H](NC(=O)c3ccc(N4CCC(CN5CCC(n6ccc7c(N8CCC(=O)NC8=O)cccc76)CC5)CC4)c(F)c3)CC2)cc1Cl [EAR206, N-((1r,4r)-4-(3-Chloro-4-cyanophenoxy)cyclohexyl)-4-(4-((4-(4-(2,4-dioxotetrahydropyrimidin-1(2H)-yl)-1H-indol-1-yl)piperidin-1-yl)methyl)piperidin-1-yl)-3-fluorobenzamide] | ≥ 50% |
| CC(C)n1ccc2c(N3CCC(=O)NC3=O)cc(C(=O)N3CCN(CC4CCN(c5ccc(C(=O)N[C@H]6CC[C@H](Oc7ccc(C#N)c(Cl)c7)CC6)cn5)CC4)CC3)cc21 [EAR80, N-((1r,4r)-4-(3-Chloro-4-cyanophenoxy)cyclohexyl)-6-(4-((4-(4-(2,4-dioxotetrahydropyrimidin-1(2H)-yl)-1-isopropyl-1H-indole-6-carbonyl)piperazin-1-yl)methyl)piperidin-1-yl)nicotinamide] | ≥ 50% |
| N#Cc1ccc(O[C@H]2CC[C@H](NC(=O)c3ccc(N4CCO[C@@H](CN5CCC(n6ccc7c(N8CCC(=O)NC8=O)cccc76)CC5)C4)nn3)CC2)cc1Cl [EAR125, N-((1r,4S)-4-(3-Chloro-4-cyanophenoxy)cyclohexyl)-6-((S)-2-((4-(4-(2,4-dioxotetrahydropyrimidin-1(2H)-yl)-1H-indol-1-yl)piperidin-1-yl)methyl)morpholino)pyridazine-3-carboxamide] | ≥ 50% |
| CC1(C)C(=O)N(c2ccc(C#N)c(C(F)(F)F)c2)C(=S)N1c1ccc(OCCCN2CCC(n3ccc4c(N5CCC(=O)NC5=O)cccc43)CC2)cc1 [EAR103, 4-(3-(4-(3-(4-(4-(2,4-Dioxotetrahydropyrimidin-1(2H)-yl)-1H-indol-1-yl)piperidin-1-yl)propoxy)phenyl)-4,4-dimethyl-5-oxo-2-thioxoimidazolidin-1-yl)-2-(trifluoromethyl)benzonitrile formate] | ≥ 50% |
| N#Cc1ccc(O[C@H]2CC[C@H](NC(=O)c3ccc(N4CCC(N5CCC(Cn6ccc7c(N8CCC(=O)NC8=O)cccc76)CC5)CC4)nn3)CC2)cc1Cl [EAR27, N-((1r,4r)-4-(3-Chloro-4-cyanophenoxy)cyclohexyl)-6-(4-((4-(2,4-dioxotetrahydropyrimidin-1(2H)-yl)-1H-indol-1-yl)methyl)-[1,4′-bipiperidin]-1′-yl)pyridazine-3-carboxamide hydrochloride] | ≥ 50% |
| N#Cc1ccc(O[C@H]2CC[C@H](NC(=O)c3ccc(N4CCC(CN5CC[C@H](n6ccc7c(N8CCC(=O)NC8=O)cccc76)[C@H](F)C5)CC4)nn3)CC2)cc1Cl [EAR156, N-((1r,4r)-4-(3-Chloro-4-cyanophenoxy)cyclohexyl)-6-(4-(((3R,4S)-4-(4-(2,4-dioxotetrahydropyrimidin-1(2H)-yl)-1H-indol-1-yl)-3-fluoropiperidin-1-yl)methyl)piperidin-1-yl)pyridazine-3-carboxamide, hydrochloride] | ≥ 50% |
| N#Cc1ccc(O[C@H]2CC[C@H](NC(=O)c3ccc(N4CCC(N5CCC(n6ccc7c(N8CCC(=O)NC8=O)cccc76)CC5)CC4)nn3)CC2)cc1Cl [AR7, N-((1r,4r)-4-(3-Chloro-4-cyanophenoxy)cyclohexyl)-6-(4-(4-(2,4-dioxotetrahydropyrimidin-1(2H)-yl)-1H-indol-1-yl)-[1,4′-bipiperidin]-1′-yl)pyridazine-3-carboxamide] | ≥ 50% |

Further lines, results first:

| Dmax | Compound |
| --- | --- |
| ≥ 50% | CC1(CN2CCC(n3ccc4c(N5CCC(=O)NC5=O)cccc43)CC2)CCN(c2ccc(C(=O)N[C@H]3CC[C@H](Oc4ccc(C#N)c(Cl)c4)CC3)nn2)CC1 [EAR213, N-((1r,4r)-4-(3-Chloro-4-cyanophenoxy)cyclohexyl)-6-(4-((4-(4-(2,4-dioxotetrahydropyrimidin-1(2H)-yl)-1H-indol-1-yl)piperidin-1-yl)methyl)-4-methylpiperidin-1-yl)pyridazine-3-carboxamide] |
| ≥ 50% | N#Cc1ccc(O[C@H]2CC[C@H](NC(=O)c3ccc(N4CCC(CN5CCC(n6ncc7c(N8CCC(=O)NC8=O)cc(F)cc76)CC5)CC4)nn3)CC2)cc1Cl [EAR33, N-((1r,4r)-4-(3-Chloro-4-cyanophenoxy)cyclohexyl)-6-(4-((4-(4-(2,4-dioxotetrahydropyrimidin-1(2H)-yl)-6-fluoro-1H-indazol-1-yl)piperidin-1-yl)methyl)piperidin-1-yl)pyridazine-3-carboxamide] |
| ≥ 50% | N#Cc1ccc(O[C@H]2CC[C@H](NC(=O)c3ccc(N4CCC(CN5CCC(n6ncc7c(N8CCC(=O)NC8=O)cc(C(F)(F)F)cc76)CC5)CC4)nn3)CC2)cc1Cl [EAR161, N-((1r,4r)-4-(3-Chloro-4-cyanophenoxy)cyclohexyl)-6-(4-((4-(4-(2,4-dioxotetrahydropyrimidin-1(2H)-yl)-6-(trifluoromethyl)-1H-indazol-1-yl)piperidin-1-yl)methyl)piperidin-1-yl)pyridazine-3-carboxamide] |
| ≥ 50% | N#Cc1ccc(O[C@H]2CC[C@H](NC(=O)c3ccc(N4C[C@@H]5[C@H](CN6CCC(n7ncc8c(N9CCC(=O)NC9=O)cccc87)CC6)[C@@H]5C4)nn3)CC2)cc1Cl [EAR235, N-((1r,4R)-4-(3-chloro-4-cyanophenoxy)cyclohexyl)-6-((1R,5S,6R)-6-((4-(4-(2,4-dioxotetrahydropyrimidin-1(2H)-yl)-1H-indazol-1-yl)piperidin-1-yl)methyl)-3-azabicyclo[3.1.0]hexan-3-yl)pyridazine-3-carboxamide] |
| ≥ 50% | N#Cc1ccc(O[C@H]2CC[C@H](NC(=O)c3ccc(N4CC[C@H](CN5CCC(n6ncc7c(N8CCC(=O)NC8=O)cccc76)CC5)C4)nn3)CC2)cc1Cl [EAR238, N-((1r,4R)-4-(3-chloro-4-cyanophenoxy)cyclohexyl)-6-((R)-3-((4-(4-(2,4-dioxotetrahydropyrimidin-1(2H)-yl)-1H-indazol-1-yl)piperidin-1-yl)methyl)pyrrolidin-1-yl)pyridazine-3-carboxamide] |
| ≥ 50% | N#Cc1ccc(O[C@H]2CC[C@H](NC(=O)c3ccc(N4CCCC(CN5CCC(n6ncc7c(N8CCC(=O)NC8=O)cccc76)CC5)C4)nn3)CC2)cc1Cl (some centres unmarked) [EAR36, N-((1r,4r)-4-(3-Chloro-4-cyanophenoxy)cyclohexyl)-6-(3-((4-(4-(2,4-dioxotetrahydropyrimidin-1(2H)-yl)-1H-indazol-1-yl)piperidin-1-yl)methyl)piperidin-1-yl)pyridazine-3-carboxamide] |
| ≥ 50% | N#Cc1ccc(O[C@H]2CC[C@H](NC(=O)c3ccc(N4CC[C@@H](CN5CCC(n6ncc7c(N8CCC(=O)NC8=O)cccc76)CC5)C4)nn3)CC2)cc1Cl [EAR239, N-((1r,4R)-4-(3-chloro-4-cyanophenoxy)cyclohexyl)-6-((S)-3-((4-(4-(2,4-dioxotetrahydropyrimidin-1(2H)-yl)-1H-indazol-1-yl)piperidin-1-yl)methyl)pyrrolidin-1-yl)pyridazine-3-carboxamide] |
| ≥ 50% | N#Cc1ccc(O[C@H]2CC[C@H](NC(=O)c3ccc(N4CCC5(CC4)CC(CN4CCC(n6ncc7c(N8CCC(=O)NC8=O)cccc76)CC4)C5)nn3)CC2)cc1Cl [EAR237, N-((1r,4r)-4-(3-chloro-4-cyanophenoxy)cyclohexyl)-6-(2-((4-(4-(2,4-dioxotetrahydropyrimidin-1(2H)-yl)-1H-indazol-1-yl)piperidin-1-yl)methyl)-7-azaspiro[3.5]nonan-7-yl)pyridazine-3-carboxamide] |
